Data reported in patent US20230320360A1, “FORMULATIONS AND METHODS FOR REGULATING AND STIMULATING PLANT GROWTH” (priority 2020, published 2023).

Test system: corn fall armyworm (FAW) (Spodoptera frugiperda)
Test: Field trials, insecticide plus ortho silicic acid against corn fall armyworm
Type: in vivo
Set-up: concentration or dose not given beside the values

CNC(=O)c1cc(Cl)cc(C)c1NC(=O)c1cc(Br)nn1-c1ncccc1Cl [CTPR, Chlorantraniliprole]
Percent Control (%) (A01 = 1 day after first spray): 67.6% | Percent Control (%) (B07 = 7 days after 2nd spray): 86.8% | Percent Control (%) (B10, after 2nd application): 88.9% | Percent Control (%) (B21, after 2nd application): 87%

Orthosilicic acid [OSA]
Percent Control (%) (A01 = 1 day after first spray): 32.4% | Percent Control (%) (B07 = 7 days after 2nd spray): 58.6% | Percent Control (%) (B10, after 2nd application): 60.6% | Percent Control (%) (B21, after 2nd application): 59%

O=C(NC(=O)c1c(F)cccc1F)Nc1ccc(OC(F)(F)C(F)OC(F)(F)F)c(Cl)c1 (stereo not drawn) [Novaluron]
Percent Control (%) (A01 = 1 day after first spray): 60.5% | Percent Control (%) (B07 = 7 days after 2nd spray): 88.8% | Percent Control (%) (B10, after 2nd application): 88.9% | Percent Control (%) (B21, after 2nd application): 84.7%
